# According to ChEMBL document CHEMBL4152339, “Design and synthesis of novel 1H-tetrazol-5-amine based potent antimicrobial agents: DNA topoisomerase IV and gyrase affinity evaluation supported by molecular docking studies” (Eur J Med Chem, 2018):
# Columns and labels:
# Bacillus cereus = experiment: Antibacterial activity against Bacillus cereus ATCC 11778 after 18 hrs by CLSI disc diffusion method; assay type: functional; settings: ATCC 11778, 18 h
# Micrococcus luteus [1] = experiment: Antibacterial activity against Micrococcus luteus ATCC 9341 after 18 hrs by CLSI disc diffusion method; assay type: functional; settings: ATCC 9341, 18 h
# Bacillus spizizenii = experiment: Antibacterial activity against Bacillus subtilis ATCC 6633 after 18 hrs by CLSI disc diffusion method; assay type: functional; settings: ATCC 6633, 18 h
# Enterococcus hirae = experiment: Antibacterial activity against Enterococcus hirae ATCC 10541 after 18 hrs by CLSI disc diffusion method; assay type: functional; settings: ATCC 10541, 18 h
# Staphylococcus aureus [2] = experiment: Antibacterial activity against Staphylococcus aureus ATCC 6538 after 18 hrs by CLSI disc diffusion method; assay type: functional; settings: ATCC 6538, 18 h
# [3] = test system: Staphylococcus epidermidis; experiment: Antibacterial activity against Staphylococcus epidermidis ATCC 35984 after 18 hrs by CLSI […] method; assay type: functional; settings: ATCC 35984, 18 h
# Staphylococcus aureus [4] = experiment: Antibacterial activity against Staphylococcus aureus NCTC 4163 after 18 hrs by CLSI disc diffusion method; assay type: functional; settings: NCTC 4163, 18 h
# [5] = test system: Staphylococcus epidermidis; experiment: Antibacterial activity against Staphylococcus epidermidis ATCC 12228 after 18 hrs by CLSI disc diffusion method; assay type: functional; settings: ATCC 12228, 18 h
# Micrococcus luteus [6] = experiment: Antibacterial activity against Micrococcus luteus ATCC 10240 after 18 hrs by CLSI disc diffusion method; assay type: functional; settings: ATCC 10240, 18 h
# Enterococcus faecalis = experiment: Antibacterial activity against Enterococcus faecalis ATCC 29212 after 18 hrs by CLSI disc diffusion method; assay type: functional; settings: ATCC 29212, 18 h
# Pseudomonas aeruginosa [7] = experiment: Antibacterial activity against Pseudomonas aeruginosa ATCC 27853 after 18 hrs by CLSI disc diffusion method; assay type: functional; settings: ATCC 27853, 18 h
# Proteus vulgaris = experiment: Antibacterial activity against Proteus vulgaris NCTC 4635 after 18 hrs by CLSI disc diffusion method; assay type: functional; settings: NCTC 4635, 18 h
# [8] = test system: Bordetella bronchiseptica; experiment: Antibacterial activity against Bordetella bronchiseptica ATCC 4617 after 18 hrs by CLSI disc diffusion method; assay type: functional; settings: ATCC 4617, 18 h
# Staphylococcus aureus [9] = experiment: Antibacterial activity against Staphylococcus aureus ATCC 25923 after 18 hrs by CLSI disc diffusion method; assay type: functional; settings: ATCC 25923, 18 h
# Escherichia coli = experiment: Antibacterial activity against Escherichia coli ATCC 10538 after 18 hrs by CLSI disc diffusion method; assay type: functional; settings: ATCC 10538, 18 h
# Pseudomonas aeruginosa [10] = experiment: Antibacterial activity against Pseudomonas aeruginosa ATCC 15442 after 18 hrs by CLSI disc diffusion method; assay type: functional; settings: ATCC 15442, 18 h
# [11] = Selectivity index, ratio of IC50 for human HaCaT cells to MIC for Proteus vulgaris NCTC 4635; assay type: toxicity; settings: read-out: Selectivity Index
# [12] = Selectivity index, ratio of IC50 for human HaCaT cells to MIC for Staphylococcus aureus NCTC 4163; assay type: toxicity; settings: read-out: Selectivity Index
# A549 = experiment: Cytotoxicity activity against human A549 cells assessed as reduction in cell viability after 72 hrs by MTT assay; assay type: cell-based; settings: A549, 72 h
# [13] = Selectivity index, ratio of IC50 for human HaCaT cells to MIC for Escherichia coli ATCC 10538; assay type: toxicity; settings: read-out: Selectivity Index
# [14] = Selectivity index, ratio of IC50 for human HaCaT cells to MIC for Bacillus subtilis ATCC 6633; assay type: toxicity; settings: read-out: Selectivity Index
# HaCaT = experiment: Cytotoxicity activity against human HaCaT cells assessed as reduction in cell viability after 72 hrs by MTT assay; assay type: cell-based
# [15] = Selectivity index, ratio of IC50 for human HaCaT cells to MIC for Bordetella bronchiseptica ATCC 4617; assay type: toxicity; settings: read-out: Selectivity Index
# [16] = Selectivity index, ratio of IC50 for human HaCaT cells to MIC for Micrococcus luteus ATCC 10240; assay type: toxicity; settings: read-out: Selectivity Index
# [17] = Selectivity index, ratio of IC50 for human HaCaT cells to MIC for Enterococcus hirae ATCC 10541; assay type: toxicity; settings: read-out: Selectivity Index
SMILES,MIC (Bacillus cereus),MIC (Micrococcus luteus [1]),MIC (Bacillus spizizenii),MIC (Enterococcus hirae),MIC (Staphylococcus aureus [2]),MIC [3],MIC (Staphylococcus aureus [4]),MIC [5],MIC (Micrococcus luteus [6]),MIC (Enterococcus faecalis),MIC (Pseudomonas aeruginosa [7]),MIC (Proteus vulgaris),MIC [8],MIC (Staphylococcus aureus [9]),MIC (Escherichia coli),MIC (Pseudomonas aeruginosa [10]),selectivity ratio [11],selectivity ratio [12],IC50 (A549),selectivity ratio [13],other results
CCn1nnnc1NCCc1c[nH]c2ccccc12,999 µM,999 µM,999 µM,999 µM,> 999 µM,999 µM,> 999 µM,999 µM,999 µM,999 µM,999 µM,999 µM,999 µM,> 999 µM,999 µM,999 µM,–,–,–,–,–
Clc1ccc(-n2nnnc2Nc2nccs2)cc1Cl,26 µM,26 µM,6 µM,205 µM,51 µM,26 µM,103 µM,51 µM,51 µM,103 µM,821 µM,821 µM,410 µM,51 µM,821 µM,821 µM,–,–,–,–,–
Fc1ccc(-n2nnnc2NCCc2c[nH]c3ccccc23)cc1,6 µM,12 µM,12 µM,25 µM,25 µM,12 µM,50 µM,50 µM,12 µM,50 µM,397 µM,12 µM,12 µM,12 µM,25 µM,397 µM,–,–,–,–,–
Fc1ccc(-n2nnnc2Nn2cnnc2)cc1Cl,29 µM,57 µM,57 µM,29 µM,14 µM,14 µM,14 µM,29 µM,57 µM,114 µM,> 914 µM,57 µM,> 914 µM,29 µM,57 µM,914 µM,1.08,4.42,60 µM,1.08,selectivity ratio [14]: 1.08; IC50 (HaCaT): 62 µM; selectivity ratio [15]: 0.07; selectivity ratio [16]: 1.08; selectivity ratio [17]: 2.13
Fc1ccc(-n2nnnc2Nc2nccs2)cc1Cl,14 µM,14 µM,14 µM,27 µM,108 µM,14 µM,108 µM,27 µM,27 µM,54 µM,> 865 µM,> 865 µM,> 865 µM,108 µM,> 865 µM,> 865 µM,0.07,0.55,60 µM,0.07,selectivity ratio [14]: 4.28; IC50 (HaCaT): 60 µM; selectivity ratio [15]: 0.07; selectivity ratio [16]: 2.22; selectivity ratio [17]: 2.22
O=[N+]([O-])c1cc(-n2nnnc2Nc2nc[nH]n2)ccc1Cl,26 µM,52 µM,52 µM,208 µM,208 µM,52 µM,208 µM,104 µM,52 µM,208 µM,834 µM,208 µM,417 µM,208 µM,417 µM,834 µM,–,–,–,–,–
